Assay: Partition coefficient (logP)
Format: physicochemical
Details: octanol/water

## Copper(II) Complex
  logP: -2.29
